Patent EP0435794A1, “Alkenyl- or heteroaryl thio, sulfone, sulfoxy herbicides” (RHONE-POULENC AGROCHIMIE, priority 1989, dated 1991)

What was measured:
Type in all cases: in vivo
Digitaria sanguinalis [1] = assay: Exemple A: herbicide application, pre-emergence; conditions: dose 1 Kg m.a./ha, notation 0 à 5 after 24 days
Description: (§1) Exemple A - Application herbicide, en prélevée des espèces végétales
(§2) Dans des pots de 7 x 7 x 8 cm remplis de terre agricole légère, on sème un nombre de graines déterminé en fonction de l'espèce végétale et de la grosseur de la graine.
(§3) Les pots sont traités par pulvérisation de bouillie en quantité correspondant à une dose volumique d'application de 500 l/ha et contenant la matière active à la concentration désirée.
(§4) Le traitement avec la bouillie est donc effectué sur des graines non recouvertes de terre (on utilise le terme de bouillie pour désigner, en général, les compositions diluées à l'eau, telles qu'on les applique sur les végétaux).
(§5) La bouillie utilisée pour le traitement est une solution ou suspension de la matière active dans un mélange acétone/eau en proportions 50/50, en présence de 0,05 % en poids de cemulsol NP 10 (agent tensio-actif) constitué d'alkylphénol polyéthoxylé, notamment de nonylphénol polyéthoxylé) et 0,04 % en poids de tween 20 (agent tensio-actif constitué d'un oléate de dérivé polyoxyéthyléné du sorbitol).
(§6) Dans le cas d'une suspension, celle-ci est obtenue en mélangeant et broyant les ingrédients dans un microniseur de façon à obtenir une grosseur moyenne de particules inférieure à 40 microns.
(§7) Après traitement, on recouvre les graines d'une couche de terre d'environ 3 mm d'épaisseur.
(§8) Les pots sont alors placés dans des bacs destinés à recevoir l'eau d'arrosage, en subirrigation, et maintenus pendant 24 jours à température ambiante sous 70 % d'humidité relative.
(§9) Le relevé est effectué de la façon suivante:
(§10) Au bout de 24 jours, on mesure un pourcentage (D) des destructions du nombre de pieds dans le pot traité par rapport au nombre de plantes dans les pots non traités (témoin). On mesure, sur les plantes traitées restantes, le pourcentage de réduction de taille (RT) par rapport aux plantes témoin.
(§11) Le pourcentage du volume foliaire non détruit par le produit est donc donné par la formule: ([100-D] x [100-RT])/(100)= A [formula]
(§12) Cette valeur A est transformée en notation de 0 à 5 selon l'échelle suivante:
(§13) Les résultats obtenus sont présentés après l'exemple B pour des doses d'application de 4000 g/ha à 1000 g/ha.
(§14) Les espèces végétales utilisées dans ces exemples A et B sont: […]

Cyperus esculentus = assay: Exemple A: herbicide application, pre-emergence; conditions: dose 1 Kg m.a./ha, notation 0 à 5 after 24 days
Description: as §1, §2, §3, §4, §5, §6, §7, §8, §9, §10, §11, §12, §13, §14

Avena fatua = assay: Exemple A: herbicide application, pre-emergence; conditions: dose 1 Kg m.a./ha, notation 0 à 5 after 24 days
Description: as §1, §2, §3, §4, §5, §6, §7, §8, §9, §10, §11, §12, §13, §14

Echinochloa crus galli = assay: Exemple A: herbicide application, pre-emergence; conditions: dose 1 Kg m.a./ha, notation 0 à 5 after 24 days
Description: as §1, §2, §3, §4, §5, §6, §7, §8, §9, §10, §11, §12, §13, §14

Alopecurus myosuroïdes = assay: Exemple A: herbicide application, pre-emergence; conditions: dose 1 Kg m.a./ha, notation 0 à 5 after 24 days
Description: as §1, §2, §3, §4, §5, §6, §7, §8, §9, §10, §11, §12, §13, §14

riz = assay: Exemple C: selectivity test in field crops, pre-emergence (crop); conditions: dose 1 Kg m.a./ha, 24 days, 0 or 1 = selective; further: ranges in brackets are in %
Description: (§15) Exemple C - Essai de sélectivité en grandes cultures avec application herbicide, en prélevée des espèces végétales
(§16) Dans des pots de 7 X 7 X 8 cm remplis de terre agricole légère, on sème un nombre de graines déterminé en fonction de l'espèce végétale et de la grosseur de la graine.
(§17) On recouvre ensuite les graines d'une couche de terre d'environ 3 mm d'épaisseur.
(§18) Les pots sont alors traités par pulvérisation de bouillie en quantité correspondant à une dose volumique d'application de 500 l/ha et contenant la matière active à la concentration désirée.
(§19) La bouillie a été préparée de la même manière qu'à l'exemple A.
(§20) Les pots traités sont ensuite placés dans des bacs destinés à recevoir l'eau d'arrosage, en subirrigation, et maintenus pendant 24 jours à température ambiante sous 70 % d'humidité relative.
as §9
(§21) Au bout de 24 jours, on mesure un pourcentage (D) de destruction du nombre de pieds dans le pot traité par rapport au nombre de plantes dans les pots non traités (témoin). On mesure, sur les plantes traitées restantes, le pourcentage de réduction de taille (RT) par rapport aux plantes témoins.
(§22) Le pourcentage de volume foliaire non détruit par le produit est donc donné par la formule: ([100-D] X [100-RT])/(100)= A [formula]
as §12
(§23) Ainsi, un produit est jugé comme sélectif vis à vis de la culture lorsque la valeur A notée est de 0 ou 1.
(§24) Les résultats obtenus sont présentés dans l'exemple C pour des doses d'application de 500, 1000, 2000 ou 4000 g de matière active par hectare selon les produits.
(§25) Les espèces végétales utilisées dans cet exemple sont:
(§26) Comme on peut le voir sur le tableau de résultats de cet exemple C, de nombreux produits présentent une excellente activité antigraminée de prélevée tout en montrant une excellente sélectivité pour 1 ou 2 ou 3 ou 4 des 4 cultures testées = blé, maïs, riz, soja.

blé = assay: as above; conditions: dose 1 Kg m.a./ha, 24 days, 0 or 1 = selective; further: ranges in brackets are in %
Description: as §15, §16, §17, §18, §19, §20, §9, §21, §22, §12, §23, §24, §25, §26

maïs = assay: as above; conditions: dose 1 Kg m.a./ha, 24 days, 0 or 1 = selective; further: ranges in brackets are in %
Description: as §15, §16, §17, §18, §19, §20, §9, §21, §22, §12, §23, §24, §25, §26

soja = assay: as above; conditions: dose 1 Kg m.a./ha, 24 days, 0 or 1 = selective; further: ranges in brackets are in %
Description: as §15, §16, §17, §18, §19, §20, §9, §21, §22, §12, §23, §24, §25, §26

Sorghum halepense = assay: Exemple C: selectivity test in field crops, pre-emergence (weed); conditions: dose 1 Kg m.a./ha, 24 days
Description: as §15, §16, §17, §18, §19, §20, §9, §21, §22, §12, §23, §24
(§27) Les espèces végétales utilisées dans cet exemple sont: […]

Digitaria sanguinalis [2] = assay: as above; conditions: dose 1 Kg m.a./ha, 24 days
Description: as §15, §16, §17, §18, §19, §20, §9, §21, §22, §12, §23, §24, §27

Alopecurus myosuroides = assay: as above; conditions: dose 1 Kg m.a./ha, 24 days
Description: as §15, §16, §17, §18, §19, §20, §9, §21, §22, §12, §23, §24, §27

Echinochloa crus-galli = assay: as above; conditions: dose 1 Kg m.a./ha, 24 days
Description: as §15, §16, §17, §18, §19, §20, §9, §21, §22, §12, §23, §24, §27

Setaria faberii = assay: as above; conditions: dose 1 Kg m.a./ha, 24 days
Description: as §15, §16, §17, §18, §19, §20, §9, §21, §22, §12, §23, §24, §27

Panicum milicaeum = assay: as above; conditions: dose 1 Kg m.a./ha, 24 days
Description: as §15, §16, §17, §18, §19, §20, §9, §21, §22, §12, §23, §24, §27

Row | Compound | ACTIVITE HERBICIDE DE PRELEVEE DIG (Digitaria sanguinalis [1]) | ACTIVITE HERBICIDE DE PRELEVEE CYP (Cyperus esculentus) | ACTIVITE HERBICIDE DE PRELEVEE AVE (Avena fatua) | ACTIVITE HERBICIDE DE PRELEVEE ECH (Echinochloa crus galli) | ACTIVITE HERBICIDE DE PRELEVEE ALO (Alopecurus myosuroïdes) | Notation de l'activité herbicide ORY (riz) | Notation de l'activité herbicide TRZ (blé) | Notation de l'activité herbicide ZEA (maïs) | Notation de l'activité herbicide GLY (soja) | Notation de l'activité herbicide SOR (Sorghum halepense) | Notation de l'activité herbicide DIG (Digitaria sanguinalis [2]) | Notation de l'activité herbicide ALO (Alopecurus myosuroides) | Notation de l'activité herbicide ECh (Echinochloa crus-galli) | Notation de l'activité herbicide SET (Setaria faberii) | Notation de l'activité herbicide PAN (Panicum milicaeum)
1 | C=C(CS(=O)(=O)c1cccs1)c1cc(F)cc(F)c1 [compound 7, 2-(3,5-difluorophényl) 1-(2-thiénylsulfonyl) 2-propène] | 5 (O à 10) | 1 (70 à 90) | 1 (70 à 90) | 5 (O à 10) | 5 (O à 10) | – | – | – | – | – | – | – | – | – | –
2 | C=C(CS(=O)(=O)c1sc(C)nc1C)c1cccc(C)c1 [compound 47] | – | – | – | – | – | 2 (50 à 70) | 0 (90 à 100) | 1 (70 à 90) | 0 (90 à 100) | 3 (30 à 50) | 5 (O à 10) | 5 (O à 10) | 4 (10 à 30) | 2 (50 à 70) | 5 (O à 10)
3 | C=C(CS(=O)(=O)c1cccs1)c1cccc(F)c1 [compound 3, 2-(3-fluorophényl) 1-(2-thiénylsulfonyl) 2-propène] | 5 (O à 10) | 5 (O à 10) | 1 (70 à 90) | 5 (O à 10) | 5 (O à 10) | – | – | – | – | – | – | – | – | – | –
